The values that follow come from patent US20250346599A1, “TRICYCLIC PHTHALAZINONE PARP INHIBITORS AND METHODS OF USE” (Valo Health, Inc., priority 2022, published 2025).

The target of series [1] is PARP1 enzyme (Homo sapiens (Human), UniProt P09874). Kind of series: PARP Mass Spectroscopy Assay (PARP1 enzymatic assay, nicotinamide detection). The series is classed as biochemical. To be noted: 5 nM PARP1, 5 uM β-NAD, 60 min at RT, NAM by mass spectrometry. The text has this:
Materials and Reagents: The PARP1 enzyme was purchased from BPS Bioscience (cat #80501). Tris-HCl, pH 8.0 was purchased from Corning (cat #46-031-CM). Magnesium chloride was purchased from Thermo Fisher Scientific (previously Honeywell Fluka, cat #63020-1L). All other assay components, activated DNA (cat #D4522), core histones (cat #SRP6590), β-Nicotinamide adenine dinucleotide (β-NAD—cat #N8285), 3ABA PARP1 small molecule inhibitor (from the PARP1 Enzyme Activity Assay kit, cat #17-10149), Sodium Chloride (NaCl, cat #56546-1L), Triton X-100 (cat #93443), Dithiothreitol (DTT, cat #43816-250 ML) were all purchased from Millipore Sigma.
Assay Buffer: The assay buffer includes the following reagents: 50 mM Tris-HCl pH 8.0, 50 mM NaCl, 10 mM, MgCl2, 0.01% Triton X-100, and 1 mM DTT.
PARP1 enzymatic assays were performed in 384-well plates in a total volume of 20 μL in the assay buffer. For concentration response curves, compounds were serially diluted 3-fold from 2 mM highest concentration […] to generate a 10-point curve, and 125 nL was transferred to the assay plate using the Echo acoustic dispenser for a final concentration range of 26.6 μM to […] in 10 μL reaction. Five microliters of 10 nM PARP1 enzyme and 100 nM core histones (2×) mix were added to the assay plates and pre-incubated for 30 mins at room temperature (RT). The reaction was initiated by the addition of a 5 μL of 10 uM β-NAD plus 0.02 mg/mL activated DNA (2×) mix. The reaction is incubated for 60 min at RT. The final concentration of the PARP1 enzyme and substrate concentrations were 5 nM and 5 uM, respectively. The positive control (high signal) and negative control (low signal) wells had 125 nL of DMSO in place of compounds. After the incubation is complete, the reaction is stopped by the addition of 10 μL of 10 uM of the 3ABA PARP1 inhibitor, incubated for 5 min at RT, and placed in the −80 C freezer for shipment to the Valo Health site in Branford Connecticut where mass spectrometry will be used to directly detect quantities of nicotinamide (NAM).
The percent inhibition of enzyme activity was calculated according to the following equation: […]
The values of Ssample, Shigh, and Slow in the equation refer to the NAM concentration detected in the assay wells, high control wells, and low control wells, respectively. To determine inhibitor IC50 values, % inhibition of the CRCs (concentration response curves) was fitted to the standard single-site four-parameter logistic equation.

Series [2] deals with human MDR1 (P-glycoprotein; P-gp) (Homo sapiens (Human), UniProt P08183). Description: bi-directional MDCK-MDR1 permeability assay. It is filed as in vitro ADME. To be noted: for MDCK-MDR1 Papp A→B (10^−6 cm/s) / Papp A→B: apical to basolateral direction; for MDCK-MDR1 ER / efflux ratio: efflux ratio B→A/A→B; for Papp A→B: dog; for Papp A→B / efflux ratio: MDCK-MDR1; for efflux ratio: human, read-out: MDCK-MDR1 ER. The text has this:
The bi-directional assay containing a Mandin Darby canine kidney (MDCK) cell line transfected with human MDR1 gene (P-glycoprotein; P-gp) designed to overexpress the MDR1 efflux transporter, a major efflux transporter at the blood brain barrier (BBB), uses an established method that measures the rate of flux of a compound across polarized cell monolayers. As well appreciated in the art, the data generated from the MDCK-MDR1 permeability assay may be used to predict in vivo absorption of drugs. The bi-directional MDCK-MDR1 permeability assay can identify and quantify levels of active efflux. Screening compounds in both the apical to basolateral direction (A→B) and basolateral to apical direction (B→A) across the cell monolayer provides a ratio of B→A/A→B (efflux ratio; “ER”). Unlike the Caco-2 assay, the MDCK-MDR1 assay is not subject to potential efflux interference by breast cancer resistance protein (BCRP). […] The data may further be used to predict blood brain barrier (BBB) permeability via calculation from the data of log(permeability-surface area product) (“log PS”), well-understood to be predictive of the in vivo log([brain concentration]/[plasma concentration]).

human MDR1 (P-glycoprotein; P-gp), sequence (P08183 whole entry): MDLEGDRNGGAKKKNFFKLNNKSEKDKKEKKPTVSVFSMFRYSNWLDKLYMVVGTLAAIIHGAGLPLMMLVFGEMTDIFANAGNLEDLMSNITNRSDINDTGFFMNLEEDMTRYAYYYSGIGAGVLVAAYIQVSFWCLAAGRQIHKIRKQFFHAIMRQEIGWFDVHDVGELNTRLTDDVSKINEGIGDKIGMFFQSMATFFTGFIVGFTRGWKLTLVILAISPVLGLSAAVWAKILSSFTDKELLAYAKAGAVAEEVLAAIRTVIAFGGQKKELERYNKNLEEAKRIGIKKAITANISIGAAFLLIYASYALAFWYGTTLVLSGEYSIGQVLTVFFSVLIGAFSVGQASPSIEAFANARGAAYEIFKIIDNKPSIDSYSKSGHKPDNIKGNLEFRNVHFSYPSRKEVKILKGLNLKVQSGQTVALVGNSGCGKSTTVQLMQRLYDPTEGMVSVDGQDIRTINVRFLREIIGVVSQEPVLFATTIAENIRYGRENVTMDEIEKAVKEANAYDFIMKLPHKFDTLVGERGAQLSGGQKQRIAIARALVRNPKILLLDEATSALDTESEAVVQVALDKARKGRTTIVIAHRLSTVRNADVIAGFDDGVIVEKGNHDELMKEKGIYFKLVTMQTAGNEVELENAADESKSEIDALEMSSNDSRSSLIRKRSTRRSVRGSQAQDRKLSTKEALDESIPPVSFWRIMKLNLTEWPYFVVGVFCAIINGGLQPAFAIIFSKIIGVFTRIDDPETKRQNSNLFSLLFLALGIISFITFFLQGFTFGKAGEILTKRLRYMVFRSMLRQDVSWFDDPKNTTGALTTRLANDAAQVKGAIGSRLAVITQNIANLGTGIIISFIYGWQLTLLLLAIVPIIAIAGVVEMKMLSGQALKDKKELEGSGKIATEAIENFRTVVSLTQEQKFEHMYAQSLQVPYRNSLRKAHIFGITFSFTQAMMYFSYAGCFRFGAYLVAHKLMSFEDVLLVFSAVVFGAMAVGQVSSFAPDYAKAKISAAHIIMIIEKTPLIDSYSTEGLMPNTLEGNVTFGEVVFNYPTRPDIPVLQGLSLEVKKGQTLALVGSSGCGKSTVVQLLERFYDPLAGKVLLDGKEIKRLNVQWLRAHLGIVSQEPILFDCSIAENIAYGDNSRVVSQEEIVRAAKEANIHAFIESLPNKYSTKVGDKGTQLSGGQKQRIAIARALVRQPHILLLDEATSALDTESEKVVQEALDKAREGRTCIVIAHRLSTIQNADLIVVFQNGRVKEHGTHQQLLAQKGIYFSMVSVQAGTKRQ
PARP1 enzyme, sequence (P09874 whole entry): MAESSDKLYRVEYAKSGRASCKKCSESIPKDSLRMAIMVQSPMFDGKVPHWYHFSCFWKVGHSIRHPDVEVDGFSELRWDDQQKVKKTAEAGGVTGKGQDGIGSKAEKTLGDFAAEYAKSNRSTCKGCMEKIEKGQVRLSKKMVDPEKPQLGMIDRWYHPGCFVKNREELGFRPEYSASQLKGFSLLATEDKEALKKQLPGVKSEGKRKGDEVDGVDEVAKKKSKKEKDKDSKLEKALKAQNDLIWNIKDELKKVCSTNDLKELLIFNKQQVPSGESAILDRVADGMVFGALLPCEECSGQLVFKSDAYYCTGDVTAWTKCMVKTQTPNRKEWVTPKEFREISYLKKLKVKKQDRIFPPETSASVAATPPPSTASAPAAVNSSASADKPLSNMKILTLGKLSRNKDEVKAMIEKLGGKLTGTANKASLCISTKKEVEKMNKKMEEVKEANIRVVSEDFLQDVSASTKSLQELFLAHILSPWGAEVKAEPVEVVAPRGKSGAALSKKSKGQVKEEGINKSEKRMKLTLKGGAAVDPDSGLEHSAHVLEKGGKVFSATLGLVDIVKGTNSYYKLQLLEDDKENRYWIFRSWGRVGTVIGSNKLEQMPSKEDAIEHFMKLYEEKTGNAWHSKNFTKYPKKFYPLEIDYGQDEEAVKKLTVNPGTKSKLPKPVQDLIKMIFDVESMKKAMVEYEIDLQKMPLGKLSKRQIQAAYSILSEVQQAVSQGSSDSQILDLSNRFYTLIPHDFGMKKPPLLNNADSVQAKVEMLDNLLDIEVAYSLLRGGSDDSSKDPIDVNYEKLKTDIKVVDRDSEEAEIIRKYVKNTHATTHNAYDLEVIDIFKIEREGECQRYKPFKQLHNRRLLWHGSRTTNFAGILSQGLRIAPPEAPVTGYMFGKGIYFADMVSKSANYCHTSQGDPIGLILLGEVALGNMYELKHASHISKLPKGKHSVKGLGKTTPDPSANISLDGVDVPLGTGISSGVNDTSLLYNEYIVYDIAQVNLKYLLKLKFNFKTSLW

Consider `O=c1[nH]nc2c3c(cc(F)cc13)NC[C@@H]2c1ccc(Cl)cc1F` [Compound 0189B], for which the IC50 – broadly, the concentration at which inhibition is half-maximal – in series [1] is 29 nM. In series [2], the “MDCK-MDR1 Papp A→B (10^−6 cm/s)” value is 15.6 10^−6 cm/s and the “MDCK-MDR1 ER” value turned out to be 0.538. In turn, `O=c1[nH]nc2c3c(cc(F)cc13)NCC2c1ccc(F)cc1F` (centres unmarked) [Compound 0114-5, 9-(2,4-difluorophenyl)-5-fluoro-2,7,8,9-tetrahydro-3H-pyrido[4,3,2-de]phthalazin-3-one] yielded a half-inhibitory concentration (IC50) in series [1] of 32 nM. Further, in series [2], the apparent permeability from apical to basolateral (Papp A→B) – broadly, the apparent permeability from the apical to the basolateral side of a cell layer – amounted to 16.1 ×10⁻⁶ cm/s and the efflux ratio stood at 0.995. The like results for `O=c1[nH]nc2c3c(cc(F)cc13)NCC2c1ccc(Cl)c(F)c1` (centres unmarked) [Compound 0188-5, 9-(4-chloro-3-fluorophenyl)-5-fluoro-2,7,8,9-tetrahydro-3H-pyrido[4,3,2-de]phthalazin-3-one] were, in that order, 42 nM, 11.7 ×10⁻⁶ cm/s and 0.522.

On to `CC(=O)N1CCC([C@@H]2Nc3cc(F)cc4c(=O)[nH]nc(c34)[C@H]2c2ccccc2Cl)CC1` [Compound 0223B], for which, in series [1], half-maximal inhibition (IC50) was put at 9 nM. For the same molecule, in series [2], the “MDCK-MDR1 Papp A→B (10^−6 cm/s)” value is 0.685 10^−6 cm/s and the “MDCK-MDR1 ER” value is on record as 37.

`Cn1ncnc1[C@H]1CNc2cc(F)cc3c(=O)[nH]nc1c23` [Compound 0200B]: in series [2], the “MDCK-MDR1 Papp A→B (10^−6 cm/s)” value was 1.2 10^−6 cm/s and the “MDCK-MDR1 ER” value amounted to 12.3. As to `C[C@H]1Nc2cc(F)cc3c(=O)[nH]nc(c23)[C@@H]1c1ccc(Cl)cc1F` [Compound 0196A], in series [1], the half-inhibitory concentration (IC50) came out at 9 nM. In series [2], the “MDCK-MDR1 Papp A→B (10^−6 cm/s)” value was 13 10^−6 cm/s and the “MDCK-MDR1 ER” value was 0.537. Consider `O=c1[nH]nc2c3c(cc(F)cc13)N[C@@H](C1CCN(C3CCC(F)(F)CC3)CC1)[C@@H]2c1ccc(Cl)cc1F` [Compound 0256A], for which, in series [2], the “MDCK-MDR1 Papp A→B (10^−6 cm/s)” value was 5.76 10^−6 cm/s and the “MDCK-MDR1 ER” value came out at 3.37. Take `CC[C@@H]1Nc2cc(F)cc3c(=O)[nH]nc(c23)[C@H]1c1ncnn1C` [Compound 0202B]: in series [2], the “MDCK-MDR1 Papp A→B (10^−6 cm/s)” value is 0.77 10^−6 cm/s and the “MDCK-MDR1 ER” value is on record as 28.5. For `Cn1ncnc1[C@@H]1c2n[nH]c(=O)c3cc(F)cc(c23)N[C@H]1C1CC1` [Compound 0203B], in series [2], the “MDCK-MDR1 Papp A→B (10^−6 cm/s)” value was 0.568 10^−6 cm/s and the “MDCK-MDR1 ER” value turned out to be 21.7. In the case of `O=c1[nH]nc2c3c(cc(F)cc13)N[C@@H](C1CCN(C3CCC(F)(F)CC3)CC1)[C@@H]2c1ccccc1Cl` [Compound 0261B], the 50% inhibitory concentration (IC50) in series [1] was determined as 301 nM. For the molecule `CC(=O)N1CCC([C@@H]2Nc3cc(F)cc4c(=O)[nH]nc(c34)[C@H]2c2ncnn2C)CC1` [Compound 0218B], in series [2], the “MDCK-MDR1 Papp A→B (10^−6 cm/s)” value is on record as 0.335 10^−6 cm/s and the “MDCK-MDR1 ER” value was determined as 3.98. In series [1], `CC(C)[C@H]1Nc2cc(F)cc3c(=O)[nH]nc(c23)[C@@H]1c1c(F)cc(F)cc1F` [Compound 0221A] returned an IC50 of 2 nM. Take `C[C@@H]1Nc2cc(F)cc3c(=O)[nH]nc(c23)[C@H]1c1ncnn1C` [Compound 0201B]: in series [2], the “MDCK-MDR1 Papp A→B (10^−6 cm/s)” value is 0.567 10^−6 cm/s and the “MDCK-MDR1 ER” value was found to be 24.7. Consider `C[C@H]1Nc2cc(F)cc3c(=O)[nH]nc(c23)[C@@H]1C1CCN(C)CC1` [Compound 0197A], for which, in series [1], the IC50 came to 447 nM. In other words, the sub-micromolar range.

In the case of `COCCN1CCC(C2Nc3cc(F)cc4c(=O)[nH]nc(c34)C2c2ccccc2Cl)C1` (centres unmarked) [Compound 0117-8, 12-(2-chlorophenyl)-7-fluoro-11-[1-(2-methoxyethyl)pyrrolidin-3-yl]-2,3,10-triazatricyclo[7.3.1.0^{5,13}]trideca-1,5(13),6,8-tetraen-4-one], in series [1], the IC50 stood at 566 nM. Same read-out and setting: next, `C[C@H]1Nc2cc(F)cc3c(=O)[nH]nc(c23)[C@@H]1[C@@H]1CCCN(C)C1` [Compound 0198D]: 42 nM; `N#Cc1ccc([C@H]2c3n[nH]c(=O)c4cc(F)cc(c34)N[C@@H]2C2CCN(C3CCC(F)(F)CC3)CC2)c(F)c1` [Compound 0276A]: 281 nM. In series [1], `O=c1[nH]nc2c3c(cc(F)cc13)NC(C1(F)CC1)C2c1ccc(Cl)cc1F` (centres unmarked) [Compound 0255-6] gave an IC50 of 4 nM. Compared with the last molecule, the IC50 is about 70-fold lower. For the molecule `C[C@H]1Nc2cc(F)cc3c(=O)[nH]nc(c23)[C@@H]1[C@@H]1CCCCN1C` [Compound 0199B], the half-maximal inhibitory concentration (IC50) in series [1] turned out to be 118 nM. Against the preceding molecule, the IC50 is about 30-fold higher. The same measure, in the same setting: next, `O=c1[nH]nc2c3c(cc(F)cc13)N[C@@H]([C@H]1CCOC1)[C@@H]2c1ccccc1Cl` [Compound 0121C]: 854 nM; `CC1Nc2cc(F)cc3c(=O)[nH]nc(c23)C1c1ccc(Cl)c(F)c1` (centres unmarked) [Compound 0195-5, 9-(4-chloro-3-fluorophenyl)-5-fluoro-8-methyl-2,7,8,9-tetrahydro-3H-pyrido[4,3,2-de]phthalazin-3-one]: 18 nM; `CN1CCC([C@H]2Nc3cc(F)cc4c(=O)[nH]nc(c34)[C@@H]2c2ccc(F)cc2F)CC1` [Compound 0110A, (8R,9R)-9-(2,4-difluorophenyl)-5-fluoro-8-(1-methylpiperidin-4-yl)-2,7,8,9-tetrahydro-3H-pyrido[4,3,2-de]phthalazin-3-one]: 1400 nM. In series [1], `O=c1[nH]nc2c3c(cc(F)cc13)N[C@H](C1CCC(F)(F)CC1)[C@H]2c1ccccc1Cl` [Compound 0213A] registered an IC50 of 352 nM.

For the molecule `CN1CCC[C@H]([C@H]2CNc3cc(F)cc4c(=O)[nH]nc2c34)C1` [Compound 0191-8], the 50% inhibitory concentration (IC50) in series [1] was found to be 46 nM. With `O=c1[nH]nc2c3c(cc(F)cc13)N[C@@H]([C@@H]1CCOC1)[C@@H]2c1ccc(F)cc1F` [Compound 0115D], in series [2], the “MDCK-MDR1 Papp A→B (10^−6 cm/s)” value is recorded as 4.94 10^−6 cm/s and the “MDCK-MDR1 ER” value is reported as 4.28.

In turn, `CC[C@H]1Nc2cc(F)cc3c(=O)[nH]nc(c23)[C@@H]1c1ccccc1Cl` [Compound 0206B, (11R,12R)-12-(2-chlorophenyl)-11-ethyl-7-fluoro-2,3,10-triazatricyclo[7.3.1.0^{5,13}]trideca-1,5(13),6,8-tetraen-4-one] yielded a 50% inhibitory concentration (IC50) in series [1] of 6 nM. On the same count and under the same terms, next, `N#Cc1ccc([C@H]2c3n[nH]c(=O)c4cc(F)cc(c34)N[C@@H]2C2CCN(C3CCC(F)(F)CC3)CC2)c(F)c1` [Compound 0276B]: 30 nM.

Regarding `CN1CCC[C@@H]([C@H]2CNc3cc(F)cc4c(=O)[nH]nc2c34)C1` [Compound 0191D], 35 nM corresponded to half-maximal inhibition in series [1] (IC50). On the same count and under the same terms, the figure for `O=c1[nH]nc2c3c(cc(F)cc13)NC(C1(F)CC1)[C@H]2c1ccccc1Cl` (some centres unmarked) [Compound 0260B] is 106 nM; for `N#Cc1ccc([C@@H]2CNc3cc(F)cc4c(=O)[nH]nc2c34)cc1F` [Compound 0186A] it is 243 nM; for `O=c1[nH]nc2c3c(cc(F)cc13)NC[C@H]2c1ccc(Cl)cc1F` [Compound 0189A] it is 79 nM. The molecule `C[C@@H]1Nc2cc(F)cc3c(=O)[nH]nc(c23)[C@H]1[C@@H]1CCCCN1C` [Compound 0199D] gave an IC50 in series [1] of 25 nM. This IC50 lies about 3.2-fold lower than the previous one.

Molecule `C[C@H]1Nc2cc(F)cc3c(=O)[nH]nc(c23)[C@H]1[C@@H]1CCCN(C)C1` [Compound 0198B] returned a concentration for half-maximal inhibition (IC50) in series [1] of 39 nM. The same measure, in the same setting: the figure for `O=c1[nH]nc2c3c(cc(F)cc13)NC(C1CCNC1)C2c1ccccc1Cl` (centres unmarked) [Compound 0171, 12-(2-chlorophenyl)-7-fluoro-11-(pyrrolidin-3-yl)-2,3,10-triazatricyclo[7.3.1.0^{5,13}]trideca-1,5(13),6,8-tetraen-4-one] is 91 nM. In the case of `Cn1ncnc1[C@H]1c2n[nH]c(=O)c3cc(F)cc(c23)N[C@@H]1C1CCC(F)(F)CC1` [Compound 0215A], in series [2], the “MDCK-MDR1 Papp A→B (10^−6 cm/s)” value is given as 0.373 10^−6 cm/s and the “MDCK-MDR1 ER” value worked out at 33.3.
